According to US11352361B2, “Compounds useful as RET inhibitors” (Cancer Research Technology Limited, priority 2017, dated 2022):

These molecules were tested against BaF3 cells expressing KIF5B-RET (Homo sapiens, UniProt P07949) (assay: BaF3 cell assay, KIF5B-RET (CellTiter-Glo viability)). Conditions: 48 hours incubation.
Type: cell-based

BaF3 cells expressing KIF5B-RET, sequence (P07949 29-1114 limits assumed, change not shown): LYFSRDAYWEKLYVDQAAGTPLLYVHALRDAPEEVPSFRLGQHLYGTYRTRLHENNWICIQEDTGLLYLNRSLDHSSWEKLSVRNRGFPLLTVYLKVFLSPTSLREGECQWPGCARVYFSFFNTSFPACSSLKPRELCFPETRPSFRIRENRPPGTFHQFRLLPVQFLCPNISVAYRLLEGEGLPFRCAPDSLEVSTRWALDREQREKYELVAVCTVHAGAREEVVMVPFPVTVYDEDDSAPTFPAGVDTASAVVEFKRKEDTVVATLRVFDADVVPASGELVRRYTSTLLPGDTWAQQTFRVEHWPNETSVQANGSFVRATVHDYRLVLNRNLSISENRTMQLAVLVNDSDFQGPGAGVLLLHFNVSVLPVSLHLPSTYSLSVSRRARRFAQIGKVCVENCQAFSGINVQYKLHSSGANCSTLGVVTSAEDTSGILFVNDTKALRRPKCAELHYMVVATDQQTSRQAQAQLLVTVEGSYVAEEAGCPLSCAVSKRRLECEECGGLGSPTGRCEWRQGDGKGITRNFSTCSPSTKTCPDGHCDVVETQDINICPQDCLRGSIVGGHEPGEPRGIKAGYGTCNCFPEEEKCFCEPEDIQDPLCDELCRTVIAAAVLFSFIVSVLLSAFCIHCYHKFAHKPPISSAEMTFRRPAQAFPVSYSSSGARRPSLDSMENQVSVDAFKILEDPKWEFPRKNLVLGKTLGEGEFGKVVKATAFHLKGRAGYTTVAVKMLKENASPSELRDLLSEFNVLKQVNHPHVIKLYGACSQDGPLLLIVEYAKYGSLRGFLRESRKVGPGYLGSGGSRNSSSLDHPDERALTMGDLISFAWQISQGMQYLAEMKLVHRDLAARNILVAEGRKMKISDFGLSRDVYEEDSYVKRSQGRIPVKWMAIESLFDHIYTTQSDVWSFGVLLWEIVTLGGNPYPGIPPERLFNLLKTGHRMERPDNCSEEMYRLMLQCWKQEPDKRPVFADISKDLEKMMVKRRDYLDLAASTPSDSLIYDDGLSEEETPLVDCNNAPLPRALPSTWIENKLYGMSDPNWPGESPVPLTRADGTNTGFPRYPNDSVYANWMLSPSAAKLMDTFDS

SMILES | IC50
CC(C)(C)n1nc(-c2ccc3cc(C(=O)Nc4nccs4)[nH]c3c2)c2c(N)ncnc21 [Example 1, 6-(4-Amino-1-tert-butyl-pyrazolo[3,4-d]pyrimidin-3-yl)-N-thiazol-2-yl-1H-indole-2-carboxamide] | 83.6 nM
Cc1csc(NC(=O)c2cc3ccc(-c4nn(C(C)(C)C)c5ncnc(N)c45)cc3[nH]2)n1 [Example 26, 6-(4-Amino-1-tert-butyl-pyrazolo[3,4-d]pyrimidin-3-yl)-N-(4-methylthiazol-2-yl)-1H-indole-2-carboxamide] | 912 nM
CNC(=O)c1cc2ccc(-c3nn(C4CC4)c4ncnc(N)c34)cc2[nH]1 [Example 50, 6-(4-Amino-1-cyclopropyl-pyrazolo[3,4-d]pyrimidin-3-yl)-N-methyl-1H-indole-2-carboxamide] | 222 nM

These molecules were tested against BaF3 cells expressing KDR (Homo sapiens, UniProt P35968, cells depend on it, form not given) (assay: not given). Conditions: read-out: KDR Cell IC50; 48 hours incubation.
BaF3 cells expressing KDR, sequence (P35968 20-1356 limits assumed, change not shown): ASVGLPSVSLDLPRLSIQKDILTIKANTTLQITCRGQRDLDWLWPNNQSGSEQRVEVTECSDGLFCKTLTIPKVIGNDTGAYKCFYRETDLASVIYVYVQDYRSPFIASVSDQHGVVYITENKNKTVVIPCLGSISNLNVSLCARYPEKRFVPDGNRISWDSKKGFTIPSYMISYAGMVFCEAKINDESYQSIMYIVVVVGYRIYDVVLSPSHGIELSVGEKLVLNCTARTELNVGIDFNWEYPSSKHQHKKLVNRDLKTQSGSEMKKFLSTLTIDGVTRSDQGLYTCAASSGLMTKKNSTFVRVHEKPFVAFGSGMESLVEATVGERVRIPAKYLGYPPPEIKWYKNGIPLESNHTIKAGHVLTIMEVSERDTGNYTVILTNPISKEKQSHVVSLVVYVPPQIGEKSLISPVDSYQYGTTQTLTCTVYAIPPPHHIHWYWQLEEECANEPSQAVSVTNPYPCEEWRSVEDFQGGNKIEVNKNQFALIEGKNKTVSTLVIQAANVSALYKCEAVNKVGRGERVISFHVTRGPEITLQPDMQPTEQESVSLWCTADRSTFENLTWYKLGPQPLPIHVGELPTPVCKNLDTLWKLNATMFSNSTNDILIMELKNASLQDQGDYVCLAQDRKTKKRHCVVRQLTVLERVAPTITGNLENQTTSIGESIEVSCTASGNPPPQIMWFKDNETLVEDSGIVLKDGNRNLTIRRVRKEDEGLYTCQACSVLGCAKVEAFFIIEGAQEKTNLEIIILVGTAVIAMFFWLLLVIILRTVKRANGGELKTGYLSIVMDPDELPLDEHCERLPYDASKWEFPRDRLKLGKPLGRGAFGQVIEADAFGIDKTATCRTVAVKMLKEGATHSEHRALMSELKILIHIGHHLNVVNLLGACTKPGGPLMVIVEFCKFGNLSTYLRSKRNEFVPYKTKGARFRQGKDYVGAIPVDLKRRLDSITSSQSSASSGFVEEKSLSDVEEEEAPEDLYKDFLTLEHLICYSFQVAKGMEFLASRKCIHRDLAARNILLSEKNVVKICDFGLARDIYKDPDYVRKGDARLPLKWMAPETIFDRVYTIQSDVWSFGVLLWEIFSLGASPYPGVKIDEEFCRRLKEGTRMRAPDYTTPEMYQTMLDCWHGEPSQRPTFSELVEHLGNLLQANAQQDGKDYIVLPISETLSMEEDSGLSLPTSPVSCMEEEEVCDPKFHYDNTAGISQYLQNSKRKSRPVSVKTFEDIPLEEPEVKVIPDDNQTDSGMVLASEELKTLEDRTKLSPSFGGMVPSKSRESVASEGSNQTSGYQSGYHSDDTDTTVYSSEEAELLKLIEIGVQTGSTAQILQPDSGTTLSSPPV

SMILES | IC50
CC(C)(C)n1nc(-c2ccc3cc(C(=O)NCC(F)(F)F)[nH]c3c2)c2c(N)ncnc21 [Example 11, 6-(4-Amino-1-tert-butyl-pyrazolo[3,4-d]pyrimidin-3-yl)-N-(2,2,2-trifluoroethyl)-1H-indole-2-carboxamide] | 4260 nM
CC(C)n1nc(-c2ccc3cc(C(=O)Nc4nccs4)[nH]c3c2)c2c(N)ncnc21 [Example 37, 6-(4-Amino-1-isopropyl-pyrazolo[3,4-d]pyrimidin-3-yl)-N-thiazol-2-yl-1H-indole-2-carboxamide] | 702 nM

Each molecule was assayed against KDR (Homo sapiens (Human), UniProt P35968) (assay: KDR enzyme assay (CisBio HTRF kinEASE)). Conditions: ATP at Km, 15 mins pre-incubation.
Type: biochemical

KDR, sequence (P35968 790-1356): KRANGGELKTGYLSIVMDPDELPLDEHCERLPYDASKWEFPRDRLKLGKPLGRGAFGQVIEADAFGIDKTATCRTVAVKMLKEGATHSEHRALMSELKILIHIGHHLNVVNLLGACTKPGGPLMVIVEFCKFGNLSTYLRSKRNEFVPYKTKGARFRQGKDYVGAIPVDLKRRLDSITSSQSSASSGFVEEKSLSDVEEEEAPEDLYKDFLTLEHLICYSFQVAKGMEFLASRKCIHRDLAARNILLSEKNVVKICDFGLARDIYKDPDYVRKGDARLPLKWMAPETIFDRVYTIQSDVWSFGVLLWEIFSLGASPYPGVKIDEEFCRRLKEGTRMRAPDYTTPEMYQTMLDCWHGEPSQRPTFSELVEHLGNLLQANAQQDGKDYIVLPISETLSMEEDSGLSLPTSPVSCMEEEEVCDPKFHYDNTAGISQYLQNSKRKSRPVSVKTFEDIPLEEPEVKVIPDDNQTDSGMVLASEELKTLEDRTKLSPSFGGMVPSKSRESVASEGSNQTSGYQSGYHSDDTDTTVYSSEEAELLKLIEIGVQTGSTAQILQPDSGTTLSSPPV

SMILES | IC50
CC(C)(C)n1nc(-c2ccc3cc(C(=O)NCC(F)(F)F)[nH]c3c2)c2c(N)ncnc21 [Example 11, 6-(4-Amino-1-tert-butyl-pyrazolo[3,4-d]pyrimidin-3-yl)-N-(2,2,2-trifluoroethyl)-1H-indole-2-carboxamide] | 150000 nM

Each molecule was assayed against RET (Homo sapiens (Human), UniProt P07949) (assay: RET enzyme assay (CisBio HTRF kinEASE)). Conditions: RET/KDR enzyme and cell assays.
Type: biochemical

RET, sequence (P07949 658-1114): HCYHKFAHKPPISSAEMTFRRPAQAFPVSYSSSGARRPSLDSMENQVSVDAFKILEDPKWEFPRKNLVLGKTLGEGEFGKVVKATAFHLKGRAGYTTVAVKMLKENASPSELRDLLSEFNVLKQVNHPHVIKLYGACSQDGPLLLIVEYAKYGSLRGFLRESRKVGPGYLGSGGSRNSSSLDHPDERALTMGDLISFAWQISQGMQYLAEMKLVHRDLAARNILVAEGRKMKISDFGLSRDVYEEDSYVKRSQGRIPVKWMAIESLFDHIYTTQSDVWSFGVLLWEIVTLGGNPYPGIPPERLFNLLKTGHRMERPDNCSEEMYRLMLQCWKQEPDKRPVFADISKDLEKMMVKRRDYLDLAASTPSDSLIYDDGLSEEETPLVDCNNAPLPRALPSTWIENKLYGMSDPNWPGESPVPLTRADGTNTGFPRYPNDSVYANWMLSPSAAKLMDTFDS

SMILES | desired activity in the assays described in Example 51
CC(C)(C)n1nc(-c2ccc3cc(C(=O)O)[nH]c3c2)c2c(N)ncnc21 [6-(4-amino-1-tert-butyl-pyrazolo[3,4-d]pyrimidin-3-yl)-1H-indole-2-carboxylic acid] | did not exhibit the desired activity
CC(C)(C)n1nc(-c2ccc3cc(C(=O)Nc4nnc(C(F)(F)F)s4)[nH]c3c2)c2c(N)ncnc21 [6-(4-amino-1-tert-butyl-pyrazolo[3,4-d]pyrimidin-3-yl)-N-[5-(trifluoromethyl)-1,3,4-thiadiazol-2-yl]-1H-indole-2-carboxamide] | did not exhibit the desired activity
CNC(=O)c1cc2ccc(-c3n[nH]c4ncnc(N)c34)cc2[nH]1 [6-(4-amino-1H-pyrazolo[3,4-d]pyrimidin-3-yl)-N-methyl-1H-indole-2-carboxamide] | did not exhibit the desired activity
CNC(=O)c1cc2ccc(-c3nn(CCO)c4ncnc(N)c34)cc2[nH]1 [6-[4-amino-1-(2-hydroxyethyl)pyrazolo[3,4-d]pyrimidin-3-yl]-N-methyl-1H-indole-2-carboxamide] | did not exhibit the desired activity
CNC(=O)c1cc2ccc(-c3nn(CC(=O)N(C)C)c4ncnc(N)c34)cc2[nH]1 [6-[4-amino-1-[2-(dimethylamino)-2-oxo-ethyl]pyrazolo[3,4-d]pyrimidin-3-yl]-N-methyl-1H-indole-2-carboxamide] | did not exhibit the desired activity
CNC(=O)c1cc2ccc(-c3nn(CCC(=O)N(C)C)c4ncnc(N)c34)cc2[nH]1 [6-[4-amino-1-[3-(dimethylamino)-3-oxo-propyl]pyrazolo[3,4-d]pyrimidin-3-yl]-N-methyl-1H-indole-2-carboxamide] | did not exhibit the desired activity
CCNC(=O)c1cc2ccc(-c3nn([C@H]4CC[C@@H](O)C4)c4ncnc(NC)c34)cc2[nH]1 [N-ethyl-6-[1-[(1 S,3R)-3-hydroxycyclopentyl]-4-(methylamino)pyrazolo[3,4-d]pyrimidin-3-yl]-1H-indole-2-carboxamide] | did not exhibit the desired activity
